Assay results reported in PubChem BioAssay (NCI).
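Exposure lasted 48 hours, with cells grown in 96-well plates and compounds tested at five concentrations. TGI is the concentration that stops growth completely.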 Where a SMILES comes first, the peptide text is derived from it. [ ]: non-standard residue; d: D form. The star is where a group is joined. AllylGly = C=CC[CH](N)C(=O)O; Boc = CC(C)(C)OC(=O)*; OtBu = CC(C)(C)O*

Columns and labels:
Assay in all cases: growth of human tumour cells (NCI), 48 h
HL-60(TB) leukemia = system: HL-60(TB) leukemia
RPMI-8226 leukemia = system: RPMI-8226 leukemia
HCT-116 colon = system: HCT-116 colon
HS 578T breast = system: HS 578T breast
M14 melanoma = system: M14 melanoma
SNB-19 CNS = system: SNB-19 CNS
U251 CNS = system: U251 CNS
UACC-62 melanoma = system: UACC-62 melanoma
SNB-75 CNS = system: SNB-75 CNS
DU-145 prostate = system: DU-145 prostate
OVCAR-5 ovarian = system: OVCAR-5 ovarian

C=CCC(NC(=O)C(CC(=O)OC(C)(C)C)NC(=O)OC(C)(C)C)C(=O)OC (stereo not drawn) (Boc-Asp(OtBu)-[AllylGly]-OMe; configuration not given here)
TGI (HL-60(TB) leukemia): 85.5 µM | TGI (RPMI-8226 leukemia): > 84.6 µM | TGI (HCT-116 colon): > 100 µM | TGI (HS 578T breast): > 100 µM | TGI (M14 melanoma): 43 µM | TGI (SNB-19 CNS): > 100 µM | TGI (U251 CNS): > 63 µM | TGI (UACC-62 melanoma): > 100 µM | TGI (SNB-75 CNS): > 100 µM | TGI (DU-145 prostate): > 100 µM | TGI (OVCAR-5 ovarian): > 100 µM

O=C1Nc2cccc(Cl)c2/C1=C\c1c(Cl)nc2sccn12
TGI (HL-60(TB) leukemia): > 100 µM | TGI (RPMI-8226 leukemia): > 100 µM | TGI (HCT-116 colon): > 100 µM | TGI (HS 578T breast): 57.5 µM | TGI (M14 melanoma): > 100 µM | TGI (SNB-19 CNS): 39.7 µM | TGI (U251 CNS): 21.5 µM | TGI (UACC-62 melanoma): > 100 µM | TGI (SNB-75 CNS): 26.3 µM | TGI (DU-145 prostate): > 100 µM | TGI (OVCAR-5 ovarian): > 100 µM

CC1(c2nc3cc(Cl)c(Cl)cc3[nH]2)CCC(CO)C(C)(C)O1 (stereo not drawn)
TGI (HL-60(TB) leukemia): 36.7 µM | TGI (RPMI-8226 leukemia): > 100 µM | TGI (HCT-116 colon): > 100 µM | TGI (HS 578T breast): 53.9 µM | TGI (M14 melanoma): 92.5 µM | TGI (SNB-19 CNS): > 100 µM | TGI (U251 CNS): > 100 µM | TGI (UACC-62 melanoma): 39.2 µM | TGI (SNB-75 CNS): 66.9 µM | TGI (DU-145 prostate): > 100 µM | TGI (OVCAR-5 ovarian): > 100 µM

COc1ccc(/C=C2\C[C@H]3[C@@H]4CCC5=C[C@@H](N6CCCC6)CC[C@]5(C)[C@H]4CC[C@]3(C)[C@H]2O)cc1
TGI (HL-60(TB) leukemia): 4.21 µM | TGI (RPMI-8226 leukemia): > 29.2 µM | TGI (HCT-116 colon): 5.45 µM | TGI (HS 578T breast): 8.66 µM | TGI (M14 melanoma): 2.9 µM | TGI (SNB-19 CNS): 16.1 µM | TGI (U251 CNS): 12.5 µM | TGI (UACC-62 melanoma): 3.28 µM | TGI (SNB-75 CNS): 14.5 µM | TGI (DU-145 prostate): 20.8 µM | TGI (OVCAR-5 ovarian): 20.9 µM

CC1(C)N=C(C(N)=O)c2ncn(-c3ccccc3)c2N1
TGI (HL-60(TB) leukemia): > 100 µM | TGI (RPMI-8226 leukemia): > 100 µM | TGI (HCT-116 colon): > 100 µM | TGI (HS 578T breast): > 100 µM | TGI (M14 melanoma): > 100 µM | TGI (SNB-19 CNS): > 100 µM | TGI (U251 CNS): > 100 µM | TGI (UACC-62 melanoma): > 100 µM | TGI (SNB-75 CNS): > 100 µM | TGI (DU-145 prostate): > 100 µM | TGI (OVCAR-5 ovarian): > 100 µM

CN(NC(=O)CCCl)C1=NCCN1
TGI (HL-60(TB) leukemia): > 100 µM | TGI (RPMI-8226 leukemia): > 100 µM | TGI (HCT-116 colon): > 100 µM | TGI (HS 578T breast): > 100 µM | TGI (M14 melanoma): > 100 µM | TGI (SNB-19 CNS): > 100 µM | TGI (U251 CNS): > 100 µM | TGI (UACC-62 melanoma): > 100 µM | TGI (SNB-75 CNS): > 100 µM | TGI (DU-145 prostate): > 100 µM | TGI (OVCAR-5 ovarian): > 100 µM

COc1cc(CCCOC(=O)/C=C/c2ccc(O)c(O)c2)cc(O)c1O
TGI (HL-60(TB) leukemia): 84.1 µM | TGI (RPMI-8226 leukemia): > 100 µM | TGI (HCT-116 colon): 34.9 µM | TGI (HS 578T breast): > 100 µM | TGI (M14 melanoma): > 100 µM | TGI (SNB-19 CNS): > 100 µM | TGI (U251 CNS): > 100 µM | TGI (UACC-62 melanoma): 85.1 µM | TGI (SNB-75 CNS): > 100 µM | TGI (DU-145 prostate): > 100 µM | TGI (OVCAR-5 ovarian): > 100 µM

O=c1[nH]c(=O)n(C2CC(O)C(CO)O2)cc1OCCCc1ccccc1 (stereo not drawn)
TGI (HL-60(TB) leukemia): > 100 µM | TGI (RPMI-8226 leukemia): > 100 µM | TGI (HCT-116 colon): > 100 µM | TGI (HS 578T breast): > 100 µM | TGI (M14 melanoma): > 100 µM | TGI (SNB-19 CNS): > 100 µM | TGI (U251 CNS): > 100 µM | TGI (UACC-62 melanoma): > 100 µM | TGI (SNB-75 CNS): > 100 µM | TGI (DU-145 prostate): > 100 µM | TGI (OVCAR-5 ovarian): > 100 µM

Cc1c(CCOC=O)c(=O)[nH]c2nncn12
TGI (HL-60(TB) leukemia): > 100 µM | TGI (RPMI-8226 leukemia): > 100 µM | TGI (HCT-116 colon): > 100 µM | TGI (HS 578T breast): > 100 µM | TGI (M14 melanoma): > 100 µM | TGI (SNB-19 CNS): > 100 µM | TGI (U251 CNS): > 100 µM | TGI (UACC-62 melanoma): > 100 µM | TGI (SNB-75 CNS): > 100 µM | TGI (DU-145 prostate): > 100 µM | TGI (OVCAR-5 ovarian): > 100 µM

C[C@]12CC[C@@H]3c4cc(OCC(F)(F)F)c(O)cc4C(=O)C[C@H]3[C@@H]1CC[C@@H]2O
TGI (HL-60(TB) leukemia): 4.68 µM | TGI (RPMI-8226 leukemia): > 100 µM | TGI (HCT-116 colon): > 100 µM | TGI (HS 578T breast): 43.9 µM | TGI (M14 melanoma): > 41.7 µM | TGI (SNB-19 CNS): > 79.5 µM | TGI (U251 CNS): > 38.8 µM | TGI (UACC-62 melanoma): > 100 µM | TGI (SNB-75 CNS): 65.7 µM | TGI (DU-145 prostate): > 100 µM | TGI (OVCAR-5 ovarian): > 85.3 µM

O=P(Oc1ccccc1)(Oc1ccccc1)Oc1c[nH]c2ccccc12
TGI (HL-60(TB) leukemia): 44.1 µM | TGI (RPMI-8226 leukemia): 1.54 µM | TGI (HCT-116 colon): 38.8 µM | TGI (HS 578T breast): 40.8 µM | TGI (M14 melanoma): 26.8 µM | TGI (SNB-19 CNS): 27.7 µM | TGI (U251 CNS): 31.9 µM | TGI (UACC-62 melanoma): 22 µM | TGI (SNB-75 CNS): 23.9 µM | TGI (DU-145 prostate): > 100 µM | TGI (OVCAR-5 ovarian): 4.56 µM

CC1=C2c3c(C)ccc4ccc(C)c(c34)C2(O)C(C)C1=O (stereo not drawn)
TGI (HL-60(TB) leukemia): 91.6 µM | TGI (RPMI-8226 leukemia): > 100 µM | TGI (HCT-116 colon): > 100 µM | TGI (HS 578T breast): > 100 µM | TGI (M14 melanoma): > 100 µM | TGI (SNB-19 CNS): > 100 µM | TGI (U251 CNS): > 100 µM | TGI (UACC-62 melanoma): > 100 µM | TGI (SNB-75 CNS): > 100 µM | TGI (DU-145 prostate): > 100 µM | TGI (OVCAR-5 ovarian): > 100 µM

COc1ccc(-c2csc(=Nc3ccccc3)n2CC(O)c2ccc([N+](=O)[O-])cc2)cc1 (stereo not drawn)
TGI (HL-60(TB) leukemia): > 100 µM | TGI (RPMI-8226 leukemia): > 100 µM | TGI (HCT-116 colon): > 100 µM | TGI (HS 578T breast): > 100 µM | TGI (M14 melanoma): > 100 µM | TGI (SNB-19 CNS): > 100 µM | TGI (U251 CNS): > 100 µM | TGI (UACC-62 melanoma): > 100 µM | TGI (SNB-75 CNS): > 100 µM | TGI (DU-145 prostate): > 100 µM | TGI (OVCAR-5 ovarian): > 100 µM

CC(N)C(C)Cc1ccccc1 (stereo not drawn)
TGI (HL-60(TB) leukemia): > 100 µM | TGI (RPMI-8226 leukemia): > 100 µM | TGI (HCT-116 colon): > 100 µM | TGI (HS 578T breast): > 100 µM | TGI (M14 melanoma): > 100 µM | TGI (SNB-19 CNS): > 100 µM | TGI (U251 CNS): > 100 µM | TGI (UACC-62 melanoma): > 100 µM | TGI (SNB-75 CNS): > 100 µM | TGI (DU-145 prostate): > 100 µM | TGI (OVCAR-5 ovarian): > 100 µM

CCNC1(c2cccc(C)c2)OC(C)(C)c2cccc3cccc1c23 (stereo not drawn)
TGI (HL-60(TB) leukemia): 19.7 µM | TGI (RPMI-8226 leukemia): 15.8 µM | TGI (HCT-116 colon): 97.4 µM | TGI (HS 578T breast): 44.3 µM | TGI (M14 melanoma): 38.1 µM | TGI (SNB-19 CNS): 33.6 µM | TGI (U251 CNS): 31.4 µM | TGI (UACC-62 melanoma): 31 µM | TGI (SNB-75 CNS): 30 µM | TGI (DU-145 prostate): 36.1 µM | TGI (OVCAR-5 ovarian): 38.1 µM

CCCCCCOc1ccc(C(=O)NOCc2ccccc2)cc1
TGI (HL-60(TB) leukemia): > 100 µM | TGI (RPMI-8226 leukemia): > 100 µM | TGI (HCT-116 colon): > 100 µM | TGI (HS 578T breast): > 100 µM | TGI (M14 melanoma): > 100 µM | TGI (SNB-19 CNS): > 100 µM | TGI (U251 CNS): > 100 µM | TGI (UACC-62 melanoma): > 100 µM | TGI (SNB-75 CNS): > 100 µM | TGI (DU-145 prostate): > 100 µM | TGI (OVCAR-5 ovarian): > 100 µM

CCCCn1c(C)c(C(=O)OCC)s/c1=N/Nc1nc2ccccc2nc1-c1ccccc1
TGI (HL-60(TB) leukemia): > 100 µM | TGI (RPMI-8226 leukemia): > 100 µM | TGI (HCT-116 colon): > 100 µM | TGI (HS 578T breast): 60.3 µM | TGI (M14 melanoma): > 100 µM | TGI (SNB-19 CNS): > 100 µM | TGI (U251 CNS): > 100 µM | TGI (UACC-62 melanoma): > 100 µM | TGI (SNB-75 CNS): > 100 µM | TGI (DU-145 prostate): 94.1 µM | TGI (OVCAR-5 ovarian): > 100 µM

CC(C)C1(C)N=C(C(F)(F)F)c2cc(C(=O)C(F)(F)F)c3ccccc3c2N1 (stereo not drawn)
TGI (HL-60(TB) leukemia): 23.3 µM | TGI (RPMI-8226 leukemia): > 27 µM | TGI (HCT-116 colon): 11.8 µM | TGI (HS 578T breast): 11 µM | TGI (M14 melanoma): 18.2 µM | TGI (SNB-19 CNS): 16.6 µM | TGI (U251 CNS): 11.1 µM | TGI (UACC-62 melanoma): 15.3 µM | TGI (SNB-75 CNS): 7.96 µM | TGI (DU-145 prostate): 14.1 µM | TGI (OVCAR-5 ovarian): 24.5 µM
